Test results as given in patent US8791132B2, “Compounds and methods for treatment of hypertension” (Medivation Technologies, Inc., priority 2011, dated 2014).

Assays:
[1] = Solubility in MeOH (chiral preparative HPLC data); assay type: physicochemical; settings: sample for chiral preparative HPLC
Method: For chiral separations, samples were dissolved in MeOH and EtOH according to the solubility of sample and filtered through 0.22μ. PTFE filters. The columns used were […]-AD; 20*250 mm, 10μ and […]-ODH; 20*250 mm, 5μ. A flow rate of 12 mL/min-17 mL/min was used according to the resolution. Alkanes such as n-Pentane, Hexane and Heptane (40%-95%) and alcohols such as EtOH, Isopropyl alcohol and t-Butanol (5%-60%) were used as mobile phase. In some cases alcohol combinations i.e. (EtOH+MeOH), (EtOH+IPA), (IPA+MeOH), (t-Butanol+MeOH), (t-Butanol+EtOH) were used instead of a single alcohol. Diethyl amine (up to 0.3%) was used as modifier in the mobile phase.
Column: Chiralcel OD-H. Column ID: 20*250 mm, 5μ. Mobile Phase:Hexane: (EtOH:MeOH 80:20)−95:5. Flow rate: 15 mL/min. Solubility: 30 mg/mL in MeOH.
Column: Chiral PAK-AD-H. Column ID: 20*250 mm, 5μ. Mobile Phase:Hexane (0.2% diethylamine):Isopropanol−93:7. Flow rate: 15 mL/min. Solubility: 40 mg/mL in MeOH.

[2] = target: T1, human recombinant adrenergic α2B receptor (Homo sapiens, UniProt P18089); assay: Radioligand binding, adrenergic α2B ([3H]Rauwolscine); settings: compound at 0.03 μM; [3H]Rauwolscine; repeat datapoints each shown; 0.03 µM
T1 construct: expressed in transfected cells; host or cells: CHO-K1
T1 sequence (P18089 1-450): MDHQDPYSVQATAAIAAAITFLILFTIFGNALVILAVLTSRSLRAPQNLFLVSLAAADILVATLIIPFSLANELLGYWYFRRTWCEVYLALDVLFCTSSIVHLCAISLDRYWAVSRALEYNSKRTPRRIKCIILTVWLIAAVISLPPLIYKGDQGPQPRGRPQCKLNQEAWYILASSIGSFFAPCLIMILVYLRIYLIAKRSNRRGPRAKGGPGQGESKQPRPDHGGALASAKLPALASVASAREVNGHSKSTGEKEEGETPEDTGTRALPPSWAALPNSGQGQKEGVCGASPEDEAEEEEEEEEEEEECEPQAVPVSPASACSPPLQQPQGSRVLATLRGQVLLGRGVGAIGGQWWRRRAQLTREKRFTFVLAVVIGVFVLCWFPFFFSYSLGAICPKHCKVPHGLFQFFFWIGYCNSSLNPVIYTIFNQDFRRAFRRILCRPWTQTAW
Procedure, shortened: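 Readout: percent inhibition of specific [3H]Rauwolscine binding, measured by filtration and counting. Conditions: CHO-K1 cell-expressed receptor, 2.5 nM radioligand, 60 min, 25° C, Tris-HCl pH 7.4 buffer with MgCl2, EDTA, BSA. Non-specific binding: 10 μM Prazosin.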

[3] = target: T2, human recombinant adrenergic α2A receptor (Homo sapiens, UniProt P08913); assay: Radioligand binding, adrenergic α2A ([3H]MK-912); settings: compound at 0.1 μM; [3H]MK-912; repeat datapoints each shown; 0.1 µM
T2 construct: expressed in transfected cells; host or cells: insect Sf9 cells
T2 sequence (P08913 1-465): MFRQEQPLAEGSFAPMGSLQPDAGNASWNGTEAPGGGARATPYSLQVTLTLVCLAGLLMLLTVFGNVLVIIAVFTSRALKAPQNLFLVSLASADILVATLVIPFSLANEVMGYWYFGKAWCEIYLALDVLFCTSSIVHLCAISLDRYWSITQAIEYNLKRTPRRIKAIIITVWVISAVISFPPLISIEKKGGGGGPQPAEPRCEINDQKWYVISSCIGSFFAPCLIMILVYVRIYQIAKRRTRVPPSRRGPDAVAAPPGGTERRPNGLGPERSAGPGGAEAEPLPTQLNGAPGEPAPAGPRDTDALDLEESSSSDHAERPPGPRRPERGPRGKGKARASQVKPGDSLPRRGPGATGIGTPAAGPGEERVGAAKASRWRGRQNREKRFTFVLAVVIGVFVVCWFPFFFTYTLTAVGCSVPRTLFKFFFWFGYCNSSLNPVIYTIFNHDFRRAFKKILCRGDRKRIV
Procedure, shortened: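 Displacement of 1 nM [3H]MK-912 from receptor produced in insect Sf9 cells was measured after 60 min at 25 °C. Readout: percent inhibition of specific binding.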

[4] = target: T3, rat adrenergic α1B receptor (Rattus norvegicus, UniProt P15823); assay: Radioligand binding, adrenergic α1B ([3H]Prazosin); settings: compound at 0.1 μM; [3H]Prazosin; repeat datapoints each shown; 0.1 µM
T3 construct: rat adrenergic α1B receptor obtained from Wistar Rat liver; from tissue; host or cells: Wistar rat liver
T3 sequence (P15823 1-515): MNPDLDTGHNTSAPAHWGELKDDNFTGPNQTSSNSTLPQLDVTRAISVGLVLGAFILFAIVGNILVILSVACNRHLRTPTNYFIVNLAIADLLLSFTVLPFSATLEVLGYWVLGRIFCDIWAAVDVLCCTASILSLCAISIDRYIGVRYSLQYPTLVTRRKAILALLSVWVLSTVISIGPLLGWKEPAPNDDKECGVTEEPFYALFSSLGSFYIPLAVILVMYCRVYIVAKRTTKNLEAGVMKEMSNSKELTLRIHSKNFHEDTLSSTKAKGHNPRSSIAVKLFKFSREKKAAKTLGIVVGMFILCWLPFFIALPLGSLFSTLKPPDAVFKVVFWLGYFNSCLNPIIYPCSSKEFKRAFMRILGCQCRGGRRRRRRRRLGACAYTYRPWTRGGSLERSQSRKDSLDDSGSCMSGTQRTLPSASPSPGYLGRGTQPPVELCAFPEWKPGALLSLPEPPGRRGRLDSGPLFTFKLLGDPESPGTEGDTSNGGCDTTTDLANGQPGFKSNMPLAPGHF
Procedure, shortened: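 Rat α1B receptor from Wistar rat liver was incubated with 0.25 nM [3H]prazosin for 60 min at 25 °C in 50 mM Tris-HCl, pH 7.4, 0.5 mM EDTA. Non-specific binding was defined with 10 μM phentolamine. Bound radioligand was measured by filtration and counting, reported as percent inhibition of specific binding.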

Row | SMILES | Solubility [1] | Percentage inhibition of ligand binding, Adrenergic α2B (0.03 μM) [2] | Percentage inhibition of ligand binding, Adrenergic α2A (0.1 μM) [3] | Percentage inhibition of ligand binding, Adrenergic α1B (0.1 μM) [4]
1 | Cc1cnc2c(c1)c1c(n2CC(C)(O)c2ccc(F)cc2)CCN(C)C1 (single isomer, unassigned) [138a] | 30 mg/mL | 63% | −8% | 61%
2 | Cc1cnc2c(c1)c1c(n2CC(C)(O)c2ccc(F)cc2)CCN(C)C1 (single isomer, unassigned) [138b] | 30 mg/mL | 25% | 4% | 22%
